Test results from patent US11203601B2, “Tricyclic compounds as glycogen synthase kinase 3 (GSK3) inhibitors and uses thereof” (The Broad Institute, Inc., priority 2017, dated 2021).

Assays:
Assay in all cases: Carna kinome panel
Assay type in all cases: biochemical
[1] = target: EGFR (Homo sapiens (Human), UniProt P00533); settings: read-out: % Inhibition at 10 μM of the test compound
[2] = target: MLK2_ Cascade (Homo sapiens (Human), UniProt Q02779); settings: read-out: % Inhibition at 10 μM of the test compound
[3] = target: TRKB (Homo sapiens (Human), UniProt Q16620); settings: read-out: % Inhibition at 10 μM of the test compound
TRKB, sequence (Q16620 32-822): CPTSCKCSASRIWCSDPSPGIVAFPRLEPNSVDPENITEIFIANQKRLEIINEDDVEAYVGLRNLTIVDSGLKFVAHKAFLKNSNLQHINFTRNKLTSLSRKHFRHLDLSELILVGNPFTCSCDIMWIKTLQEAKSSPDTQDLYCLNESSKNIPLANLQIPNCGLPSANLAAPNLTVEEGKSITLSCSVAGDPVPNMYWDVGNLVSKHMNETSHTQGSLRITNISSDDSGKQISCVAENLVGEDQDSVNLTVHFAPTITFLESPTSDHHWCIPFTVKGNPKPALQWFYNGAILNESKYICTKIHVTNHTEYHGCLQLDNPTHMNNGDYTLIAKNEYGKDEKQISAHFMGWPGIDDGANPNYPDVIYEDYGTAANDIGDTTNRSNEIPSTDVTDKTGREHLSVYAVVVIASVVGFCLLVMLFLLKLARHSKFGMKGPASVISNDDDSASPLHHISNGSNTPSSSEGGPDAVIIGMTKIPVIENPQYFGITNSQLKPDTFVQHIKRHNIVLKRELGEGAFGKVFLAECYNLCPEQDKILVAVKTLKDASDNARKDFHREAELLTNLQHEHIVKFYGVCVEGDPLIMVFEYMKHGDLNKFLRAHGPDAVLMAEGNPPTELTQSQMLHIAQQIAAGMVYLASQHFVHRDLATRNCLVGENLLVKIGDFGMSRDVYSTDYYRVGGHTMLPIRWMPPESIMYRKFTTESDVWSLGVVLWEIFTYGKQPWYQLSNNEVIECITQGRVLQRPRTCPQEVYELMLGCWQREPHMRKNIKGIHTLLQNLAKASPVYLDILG

[4] = target: FGR (Homo sapiens (Human), UniProt P09769); settings: read-out: % Inhibition at 10 μM of the test compound
FGR, sequence (P09769 whole entry): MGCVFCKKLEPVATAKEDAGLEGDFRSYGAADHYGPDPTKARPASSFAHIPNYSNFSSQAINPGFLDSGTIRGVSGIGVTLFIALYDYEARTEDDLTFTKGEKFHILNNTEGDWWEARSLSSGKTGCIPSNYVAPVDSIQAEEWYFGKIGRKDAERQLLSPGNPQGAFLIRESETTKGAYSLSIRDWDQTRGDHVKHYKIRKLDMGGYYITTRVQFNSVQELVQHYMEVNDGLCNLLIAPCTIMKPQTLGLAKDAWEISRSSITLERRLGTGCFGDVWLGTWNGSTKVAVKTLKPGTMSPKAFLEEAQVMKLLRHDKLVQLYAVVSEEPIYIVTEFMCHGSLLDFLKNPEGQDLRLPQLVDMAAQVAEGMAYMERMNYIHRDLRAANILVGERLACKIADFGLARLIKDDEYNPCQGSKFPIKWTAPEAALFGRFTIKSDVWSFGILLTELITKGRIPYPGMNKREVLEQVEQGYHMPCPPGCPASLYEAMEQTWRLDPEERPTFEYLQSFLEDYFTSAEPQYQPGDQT

[5] = target: PKN1 (Homo sapiens (Human), UniProt Q16512); settings: read-out: % Inhibition at 10 μM of the test compound
[6] = target: FRK (Homo sapiens (Human), UniProt P42685); settings: read-out: % Inhibition at 10 μM of the test compound
[7] = target: ROCK1 (Homo sapiens (Human), UniProt Q13464); settings: read-out: % Inhibition at 10 μM of the test compound
[8] = target: CK1α (Homo sapiens (Human), UniProt P48729); settings: read-out: % Inhibition at 10 μM of the test compound
[9] = target: IKKε (Homo sapiens (Human), UniProt Q14164); settings: read-out: % Inhibition at 10 μM of the test compound
[10] = target: DYRK2 (Homo sapiens (Human), UniProt Q92630); settings: read-out: % Inhibition at 10 μM of the test compound
[11] = target: PAK6 (Homo sapiens (Human), UniProt Q9NQU5); settings: read-out: % Inhibition at 10 μM of the test compound
[12] = target: MAP2K4_Cascade (Homo sapiens (Human), UniProt P45985); settings: read-out: % Inhibition at 10 μM of the test compound
[13] = target: LTK (Homo sapiens (Human), UniProt P29376); settings: read-out: % Inhibition at 10 μM of the test compound
Protocol: (§1) Briefly, a selection of compounds was screened against a panel of kinases at a single concentration of 10 μM. […] This was completed using one of two assays, depending on the kinase being examined: 1) IMAP Assay. A solution of 4× inhibitor, 4× substrate/ATP/metal solution and 2× kinase solution was prepared with assay buffer (20 mM HEPES, 0.01% Tween-20, 2 mM DTT, pH 7.4) and mixed, then incubated in 384-well black plates for 1 hour at room temperature. The IMAP binding reagent (IMAP Screening Express kit; Molecular Devices) was added to each well and incubated for 30 minutes. […] 2) Off-Chip Mobility Shift Assay (MSA). A solution of 4× inhibitor, 4× substrate/ATP/metal solution and 2× kinase solution was prepared with assay buffer (20 mM HEPES, 0.01% Triton X-100, 2 mM DTT, pH 7.5) and mixed, then incubated in 384-well plates for 1 or 5 hours depending on the kinase, at room temperature. Termination buffer (QuickScout Screening assist MSA; Carna Biosciences) was added to each well. The entire reaction mixture was then applied to a LabChip3000 system (Caliper Life Science), and the product and substrate peptide peaks were separated and quantified. […] The entire reaction mixture was then applied to a LabChip3000 system (Caliper Life Science), and the product and substrate peptide peaks were separated and quantified.

[14] = target: RET(G691S) (Homo sapiens (Human), UniProt P07949, G691S); settings: read-out: % Inhibition at 10 μM of the test compound
[15] = target: PKD3 (Homo sapiens (Human), UniProt O94806); settings: read-out: % Inhibition at 10 μM of the test compound
PKD3, sequence (O94806 whole entry, looked up, canonical isoform): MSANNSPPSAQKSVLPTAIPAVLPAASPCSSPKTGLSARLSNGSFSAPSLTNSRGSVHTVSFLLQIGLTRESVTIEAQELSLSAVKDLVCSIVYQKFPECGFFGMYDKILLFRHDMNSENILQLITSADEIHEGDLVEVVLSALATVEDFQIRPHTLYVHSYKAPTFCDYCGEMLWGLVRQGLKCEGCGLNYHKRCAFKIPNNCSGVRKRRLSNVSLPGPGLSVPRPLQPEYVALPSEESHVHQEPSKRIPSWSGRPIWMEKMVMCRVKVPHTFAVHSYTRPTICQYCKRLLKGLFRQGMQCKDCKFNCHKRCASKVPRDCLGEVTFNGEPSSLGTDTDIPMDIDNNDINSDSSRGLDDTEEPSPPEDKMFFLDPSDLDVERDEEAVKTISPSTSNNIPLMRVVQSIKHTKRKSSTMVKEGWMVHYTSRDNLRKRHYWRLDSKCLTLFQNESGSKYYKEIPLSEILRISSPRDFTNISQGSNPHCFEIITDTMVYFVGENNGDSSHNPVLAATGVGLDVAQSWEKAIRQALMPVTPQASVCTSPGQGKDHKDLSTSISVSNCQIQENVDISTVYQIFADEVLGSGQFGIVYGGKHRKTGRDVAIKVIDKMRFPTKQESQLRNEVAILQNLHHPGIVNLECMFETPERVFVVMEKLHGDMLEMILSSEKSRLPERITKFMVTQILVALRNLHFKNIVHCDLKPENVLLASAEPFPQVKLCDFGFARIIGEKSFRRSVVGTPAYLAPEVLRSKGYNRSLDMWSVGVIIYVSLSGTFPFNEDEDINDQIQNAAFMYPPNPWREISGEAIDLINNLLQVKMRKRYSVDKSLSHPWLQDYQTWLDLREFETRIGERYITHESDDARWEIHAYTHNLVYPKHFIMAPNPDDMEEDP

[16] = target: FYN(isoform b) (Homo sapiens (Human), UniProt P06241); settings: read-out: % Inhibition at 10 μM of the test compound
[17] = target: LCK (Homo sapiens (Human), UniProt P06239); settings: read-out: % Inhibition at 10 μM of the test compound
[18] = target: CK1γ3 (Homo sapiens (Human), UniProt Q9Y6M4); settings: read-out: % Inhibition at 10 μM of the test compound
[19] = target: LYNb (Homo sapiens (Human), UniProt P07948); settings: read-out: % Inhibition at 10 μM of the test compound
[20] = target: MARK2 (Homo sapiens (Human), UniProt Q7KZI7); settings: read-out: % Inhibition at 10 μM of the test compound
[21] = target: TRKC (Homo sapiens (Human), UniProt Q16288); settings: read-out: % Inhibition at 10 μM of the test compound
[22] = target: DYRK3 (Homo sapiens (Human), UniProt O43781); settings: read-out: % Inhibition at 10 μM of the test compound
DYRK3, sequence (O43781 whole entry): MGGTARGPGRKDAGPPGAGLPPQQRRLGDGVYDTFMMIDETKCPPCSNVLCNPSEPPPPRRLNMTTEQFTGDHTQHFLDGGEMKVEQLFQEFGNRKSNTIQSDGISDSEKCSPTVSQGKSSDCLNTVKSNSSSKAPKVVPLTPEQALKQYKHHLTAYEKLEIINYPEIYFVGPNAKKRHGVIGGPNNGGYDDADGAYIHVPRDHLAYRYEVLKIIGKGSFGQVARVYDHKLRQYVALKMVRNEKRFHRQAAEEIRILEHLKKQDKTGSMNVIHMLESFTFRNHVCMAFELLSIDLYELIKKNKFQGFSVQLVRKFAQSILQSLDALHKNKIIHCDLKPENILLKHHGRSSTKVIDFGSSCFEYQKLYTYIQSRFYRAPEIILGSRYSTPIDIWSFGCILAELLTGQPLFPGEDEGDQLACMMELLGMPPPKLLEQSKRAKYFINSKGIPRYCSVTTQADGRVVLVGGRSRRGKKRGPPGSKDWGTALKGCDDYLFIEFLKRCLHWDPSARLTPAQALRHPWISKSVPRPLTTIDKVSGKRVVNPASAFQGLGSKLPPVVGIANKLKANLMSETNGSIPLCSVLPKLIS

[23] = target: NEK9 (Homo sapiens (Human), UniProt Q8TD19); settings: read-out: % Inhibition at 10 μM of the test compound
[24] = target: NDR1 (Homo sapiens (Human), UniProt Q15208); settings: read-out: % Inhibition at 10 μM of the test compound
[25] = target: PDHK2 (Homo sapiens (Human), UniProt Q15119); settings: read-out: % Inhibition at 10 μM of the test compound
[26] = target: FLT4 (Homo sapiens (Human), UniProt P35916); settings: read-out: % Inhibition at 10 μM of the test compound
[27] = target: SGK (Homo sapiens (Human), UniProt O00141); settings: read-out: % Inhibition at 10 μM of the test compound
SGK, sequence (O00141 whole entry): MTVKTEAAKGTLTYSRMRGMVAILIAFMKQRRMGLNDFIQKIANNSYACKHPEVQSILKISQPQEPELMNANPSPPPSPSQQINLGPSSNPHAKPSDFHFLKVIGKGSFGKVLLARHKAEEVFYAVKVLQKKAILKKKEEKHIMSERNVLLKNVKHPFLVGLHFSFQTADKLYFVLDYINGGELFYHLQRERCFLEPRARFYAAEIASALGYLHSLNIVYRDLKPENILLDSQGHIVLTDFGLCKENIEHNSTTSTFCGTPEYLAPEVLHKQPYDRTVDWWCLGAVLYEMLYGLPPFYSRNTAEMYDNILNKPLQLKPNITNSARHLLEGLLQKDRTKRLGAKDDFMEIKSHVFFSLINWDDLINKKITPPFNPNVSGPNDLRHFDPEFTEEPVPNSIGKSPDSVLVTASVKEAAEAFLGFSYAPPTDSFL

[28] = target: SRC (Homo sapiens (Human), UniProt P12931); settings: read-out: % Inhibition at 10 μM of the test compound
SRC, sequence (P12931 whole entry): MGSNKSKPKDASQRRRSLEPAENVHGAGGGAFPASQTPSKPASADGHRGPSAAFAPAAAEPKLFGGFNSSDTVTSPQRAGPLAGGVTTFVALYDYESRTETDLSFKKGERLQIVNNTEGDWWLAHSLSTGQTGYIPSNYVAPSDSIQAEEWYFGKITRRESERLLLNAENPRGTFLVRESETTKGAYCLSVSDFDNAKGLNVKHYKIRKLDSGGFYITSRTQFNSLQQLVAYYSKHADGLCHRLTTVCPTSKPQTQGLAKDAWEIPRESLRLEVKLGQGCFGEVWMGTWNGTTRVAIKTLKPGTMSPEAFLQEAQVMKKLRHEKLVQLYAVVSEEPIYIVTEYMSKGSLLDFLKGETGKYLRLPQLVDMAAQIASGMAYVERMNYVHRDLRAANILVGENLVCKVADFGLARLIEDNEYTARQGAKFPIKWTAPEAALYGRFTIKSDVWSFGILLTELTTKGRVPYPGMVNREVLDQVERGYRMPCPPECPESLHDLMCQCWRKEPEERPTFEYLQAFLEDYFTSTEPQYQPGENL

[29] = target: BRSK2 (Homo sapiens (Human), UniProt Q8IWQ3); settings: read-out: % Inhibition at 10 μM of the test compound
[30] = test system: MAP2K1_Cascade
Protocol: as §1

[31] = target: CK2α1/β (Homo sapiens (Human), UniProt P68400); settings: read-out: % Inhibition at 10 μM of the test compound
Protocol: as §1

[32] = target: ACK (Homo sapiens (Human), UniProt Q07912); settings: read-out: % Inhibition at 10 μM of the test compound
[33] = target: MET(M1250T) (Homo sapiens (Human), UniProt P08581, M1250T); settings: read-out: % Inhibition at 10 μM of the test compound
[34] = target: LOK (Homo sapiens (Human), UniProt O94804); settings: read-out: % Inhibition at 10 μM of the test compound
[35] = target: SPHK1 (Homo sapiens (Human), UniProt Q9NYA1); settings: read-out: % Inhibition at 10 μM of the test compound
[36] = target: DAPK1 (Homo sapiens (Human), UniProt P53355); settings: read-out: % Inhibition at 10 μM of the test compound
[37] = target: PKR (Homo sapiens (Human), UniProt P19525); settings: read-out: % Inhibition at 10 μM of the test compound
[38] = target: TEC (Homo sapiens (Human), UniProt P42680); settings: read-out: % Inhibition at 10 μM of the test compound
TEC, sequence (P42680 whole entry): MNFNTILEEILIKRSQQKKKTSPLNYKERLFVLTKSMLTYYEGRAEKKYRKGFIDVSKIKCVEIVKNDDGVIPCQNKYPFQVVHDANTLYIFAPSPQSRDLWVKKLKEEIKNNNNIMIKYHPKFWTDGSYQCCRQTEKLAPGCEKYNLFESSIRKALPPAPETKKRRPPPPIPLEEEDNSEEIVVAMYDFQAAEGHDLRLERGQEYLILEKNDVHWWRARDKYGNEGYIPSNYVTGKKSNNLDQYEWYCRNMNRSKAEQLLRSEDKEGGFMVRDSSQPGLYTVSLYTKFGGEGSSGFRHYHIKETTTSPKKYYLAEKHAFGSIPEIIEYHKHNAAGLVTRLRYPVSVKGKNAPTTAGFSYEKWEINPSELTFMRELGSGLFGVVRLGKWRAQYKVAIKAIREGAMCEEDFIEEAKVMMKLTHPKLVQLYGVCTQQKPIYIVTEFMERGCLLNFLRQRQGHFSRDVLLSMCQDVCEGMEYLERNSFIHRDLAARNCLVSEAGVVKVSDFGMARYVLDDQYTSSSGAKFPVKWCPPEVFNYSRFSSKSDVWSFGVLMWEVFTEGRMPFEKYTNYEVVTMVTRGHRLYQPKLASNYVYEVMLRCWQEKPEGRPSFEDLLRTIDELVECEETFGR

[39] = target: HIPK4 (Homo sapiens (Human), UniProt Q8NE63); settings: read-out: % Inhibition at 10 μM of the test compound
HIPK4, sequence (Q8NE63 whole entry): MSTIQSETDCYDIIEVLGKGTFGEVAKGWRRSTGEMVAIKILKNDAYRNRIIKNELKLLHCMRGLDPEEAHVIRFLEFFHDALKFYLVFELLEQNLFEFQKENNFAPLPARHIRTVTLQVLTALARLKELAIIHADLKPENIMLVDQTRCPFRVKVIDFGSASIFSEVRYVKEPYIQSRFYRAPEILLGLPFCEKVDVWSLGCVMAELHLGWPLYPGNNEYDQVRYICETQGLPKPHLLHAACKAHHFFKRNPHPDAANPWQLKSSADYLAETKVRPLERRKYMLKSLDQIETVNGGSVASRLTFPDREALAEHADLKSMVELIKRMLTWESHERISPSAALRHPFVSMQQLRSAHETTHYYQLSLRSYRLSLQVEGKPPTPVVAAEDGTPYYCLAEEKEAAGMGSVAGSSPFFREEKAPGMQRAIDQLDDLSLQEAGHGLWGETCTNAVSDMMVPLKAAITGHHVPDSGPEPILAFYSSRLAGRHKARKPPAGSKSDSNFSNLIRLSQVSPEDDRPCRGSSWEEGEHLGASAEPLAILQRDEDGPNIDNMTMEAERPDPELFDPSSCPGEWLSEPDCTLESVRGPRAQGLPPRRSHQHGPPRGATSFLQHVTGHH

[40] = target: MAPKAPK2 (Homo sapiens (Human), UniProt P49137); settings: read-out: % Inhibition at 10 μM of the test compound
[41] = target: SRM (Homo sapiens (Human), UniProt Q9H3Y6); settings: read-out: % Inhibition at 10 μM of the test compound

CCC1(c2ccccc2)C2=C(CC(C)(C)CC2=O)Nc2ncsc21 (centres unmarked) [Compound 1, 9-Ethyl-6,6-dimethyl-9-phenyl-5,6,7,9-tetrahydrothiazolo[4,5-b]quinolin-8(4H)-one]
inhibition at 10 µM [1]: 21.2%
inhibition at 10 µM [2]: 16.1%
inhibition at 10 µM [3]: 16%
inhibition at 10 µM [4]: 10.6%
inhibition at 10 µM [5]: 8.9%
inhibition at 10 µM [6]: 8.4%
inhibition at 10 µM [7]: 7%
inhibition at 10 µM [8]: 4.3%
inhibition at 10 µM [9]: 4.2%
inhibition at 10 µM [10]: 4%
inhibition at 10 µM [11]: 3.9%
inhibition at 10 µM [12]: 3.7%
inhibition at 10 µM [13]: 3.1%
inhibition at 10 µM [14]: 2.8%
inhibition at 10 µM [15]: 2.7%
inhibition at 10 µM [16]: 2.4%
inhibition at 10 µM [17]: 1.7%
inhibition at 10 µM [18]: 1.5%
inhibition at 10 µM [19]: 0.8%
inhibition at 10 µM [20]: 0.4%
inhibition at 10 µM [21]: 0.4%
inhibition at 10 µM [22]: 0.3%
inhibition at 10 µM [23]: 0.3%
inhibition at 10 µM [24]: 0.2%
inhibition at 10 µM [25]: 0.1%
inhibition at 10 µM [26]: -0.2%
inhibition at 10 µM [27]: -1.7%
inhibition at 10 µM [28]: -2.2%
inhibition at 10 µM [29]: -2.9%
% Inhibition at 10 μM of the test compound [30]: −3.2%
inhibition at 10 µM [31]: -3.7%
inhibition at 10 µM [32]: -4.1%
inhibition at 10 µM [33]: -4.2%
inhibition at 10 µM [34]: -4.7%
inhibition at 10 µM [35]: -6.5%
inhibition at 10 µM [36]: -8.7%
inhibition at 10 µM [37]: -8.9%
inhibition at 10 µM [38]: -9.1%
inhibition at 10 µM [39]: -12.5%
inhibition at 10 µM [40]: -13.4%
inhibition at 10 µM [41]: -15.1%
